Measurements published in PMC6986272 (Frontiers in Microbiology, 2020).

Each compound was assayed against T1, Brucella melitensis DAPDC (diaminopimelate decarboxylase) (Brucella melitensis, UniProt Q8YJJ9) (assay: not given). Settings: 200 mM Tris-HCl pH 8.0, 4 mM α-ketoglutarate, 600 μM NADH, 0.1 mM PLP, excess SDH, DAP 0-20 mM, room temperature.
T1 construct: gene lysA
T1 sequence (Q8YJJ9 1-421): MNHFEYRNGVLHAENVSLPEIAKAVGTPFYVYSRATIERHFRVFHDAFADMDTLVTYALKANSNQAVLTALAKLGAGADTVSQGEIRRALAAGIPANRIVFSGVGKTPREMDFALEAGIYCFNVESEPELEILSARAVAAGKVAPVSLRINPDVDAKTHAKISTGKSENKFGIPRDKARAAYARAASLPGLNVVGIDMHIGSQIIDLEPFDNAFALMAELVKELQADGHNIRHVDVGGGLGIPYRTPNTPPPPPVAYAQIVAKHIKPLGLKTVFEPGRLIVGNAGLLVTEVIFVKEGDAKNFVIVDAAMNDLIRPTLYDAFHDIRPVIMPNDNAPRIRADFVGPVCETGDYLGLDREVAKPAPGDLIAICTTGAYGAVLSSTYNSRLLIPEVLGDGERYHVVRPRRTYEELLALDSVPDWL
In the case of NC(CCCC(N)C(=O)O)C(=O)O (stereo not drawn) [DAP], the “DAPDC-SDH coupled assay, NADH A340 endpoint” value is reported as “hyperbolic behavior of DAPDC activity as a function of DAP concentration”.

These compounds were tested against T1, Brucella melitensis DAPDC (diaminopimelate decarboxylase) (assay: biochemical). Settings: read-out: Inhibitory rate (%).
Compound CC(C)Nc1cc(-c2c[nH]c(C(=O)N[C@H](CO)c3cccc(Cl)c3)c2)c(Cl)cn1 [SID14, ulixertinib] has an inhibition at 40 µM of 47.3%.
Work on CCC(=O)c1c(O)cc(O)cc1O [SID12, S4249] yielded an inhibition at 40 µM of 49.2%.
Compound Cc1cccn2c(=O)c(-c3nn[nH]n3)cnc12 [SID5, S4008] has an inhibition at 40 µM of 63.1%.
Work on C[C@H]1COc2c(N3CCN(C)CC3)c(F)cc3c(=O)c(C(=O)O)cn1c23 [SID7, levofloxacin] yielded an inhibition at 40 µM of 55.3%.
Work on Cc1c(Cl)cccc1Nc1ccccc1C(=O)O [SID20, tolfenamic acid] yielded an inhibition at 40 µM of 44%.
CC1COc2c(N3CCN(C)CC3)c(F)cc3c(=O)c(C(=O)O)cn1c23 (stereo not drawn) [SID16, S1940] gave an inhibition at 40 µM of 46.7%.
CO[C@H]1/C=C/O[C@@]2(C)Oc3c(C)c(O)c4c(O)c(c(/C=N/N5CCN(C)CC5)c(O)c4c3C2=O)NC(=O)/C(C)=C\C=C\[C@H](C)[C@H](O)[C@@H](C)[C@@H](O)[C@@H](C)[C@H](OC(C)=O)[C@@H]1C [SID11, rifampin] showed an inhibition at 40 µM of 51.5%.
In the case of CC(NC(C)(C)C)C(=O)c1cccc(Cl)c1 (racemic) [SID13, S2452], the inhibition at 40 µM is reported as 47.7%.
With COc1ccc(-c2nc3ccc(C4=NNC(=O)CC4C)cc3[nH]2)cc1 (stereo not drawn) [SID15, pimobendan] the inhibition at 40 µM was 46.8%.
Work on CCN(CCO)CCCC(C)Nc1ccnc2cc(Cl)ccc12 (racemic) [SID6, S4430] yielded an inhibition at 40 µM of 56.1%.
In the case of COc1cc(C2Oc3ccc(C4Oc5cc(O)cc(O)c5C(=O)C4O)cc3OC2CO)ccc1O (stereo not drawn) [SID1, S2357], the inhibition at 40 µM is reported as 70.3%.
CC(=O)c1c(C)c2cnc(Nc3ccc(N4CCNCC4)cn3)nc2n(C2CCCC2)c1=O [SID10, S1579] was tested, and the inhibition at 40 µM was 52.1%.
Nc1nc(=S)c2[nH]cnc2[nH]1 [SID2, S1774] gave an inhibition at 40 µM of 68.7%.
Compound Cc1nc(Nc2ncc(C(=O)Nc3c(C)cccc3Cl)s2)cc(N2CCN(CCO)CC2)n1 [SID3, dasatinib monohydrate] has an inhibition at 40 µM of 67.1%.

The compounds below were run against T1, Brucella melitensis DAPDC (diaminopimelate decarboxylase) (assay: not given). Settings: 40 µM.
In the case of O.O.O=C([O-])CCNC(=O)c1ccc(N=Nc2ccc([O-])c(C(=O)O)c2)cc1.[Na+].[Na+] [SID8, S3745], the “Inhibitory rate (%)” value is reported as 54.83%.
With CC(C)(C)C(=O)Oc1ccc(S(=O)(=O)Nc2ccccc2C(=O)NCC(=O)[O-])cc1.O.O.O.O.[Na+] [SID9, S4666] the “Inhibitory rate (%)” value was 52.88%.

The compounds below were run against T2, Saccharomyces cerevisiae saccharopine dehydrogenase (SDH) (Saccharomyces cerevisiae, UniProt P38998) (assay: NADH oxidation, A340 endpoint). Settings: 200 mM Tris pH 8.0, 600 μM NADH, α-ketoglutarate, room temperature, 15 min.
T2 construct: gene LYS1; SDH coding gene in pET30a, Ni-NTA purified, expressed in E. coli BL21(DE3), about 41 kDa
T2 sequence (P38998 2-373): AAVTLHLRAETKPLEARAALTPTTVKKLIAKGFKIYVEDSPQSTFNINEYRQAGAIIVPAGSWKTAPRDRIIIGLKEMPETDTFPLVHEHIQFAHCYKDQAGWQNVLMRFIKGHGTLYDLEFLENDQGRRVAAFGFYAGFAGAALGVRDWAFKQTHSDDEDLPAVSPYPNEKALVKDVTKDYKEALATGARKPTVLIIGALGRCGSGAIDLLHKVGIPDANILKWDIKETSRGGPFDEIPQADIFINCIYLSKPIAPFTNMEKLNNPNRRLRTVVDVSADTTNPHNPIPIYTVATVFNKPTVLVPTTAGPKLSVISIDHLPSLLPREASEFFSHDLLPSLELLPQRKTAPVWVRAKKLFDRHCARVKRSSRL
Assay type: biochemical
With NCCCC[C@H](N)C(=O)O [L-lysine] the “NADH oxidation, A340 endpoint” value was “Activity of SDH as a function of the concentration of L-lysine”.
